Experimental data from patent publication US9278940B2, “Cyclic amines as bromodomain inhibitors” (Zenith Epigenetics Corp., priority 2012, dated 2016).
Structures can show the parent of a compound that is named as a salt.

How the values were obtained:
[1] = molecular target: T1, Brd4 bromodomain 1 (Homo sapiens, UniProt O60885); experiment: Inhibition of tetra-acetylated histone H4 binding to BET bromodomain (TR-FRET); set-up: key: Active: Compounds with an IC50 value less than 30 μM were deemed to be active.; Not Active: Compounds with an IC50 value less than 30 μM were deemed to be active; settings: Brd4 bromodomain 1, tetra-acetylated histone H4 peptide
T1 construct: made in house; host or cells: E. coli BL21(DE3)
Method in brief: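 N-terminally His-tagged bromodomain (200 nM, E. coli-expressed, Ni affinity and SEC purified) with biotinylated tetra-acetylated H4 peptide (25-50 nM), Eu-cryptate streptavidin and XL665 anti-His; 2 h at room temperature in HEPES pH 7.4/KF buffer, 0.2% DMSO. The 665/620 nm ratio decrease gave IC50 from dose-response curves.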

[2] = In vivo efficacy in rat collagen induced arthritis; settings: female Lewis rats, collagen Day 1 and 7, dosed Day 11 to Day 17
Description: Rat collagen-induced arthritis is an experimental model of polyarthritis that has been widely used for preclinical testing of numerous anti-arthritic agents. Following administration of collagen, this model establishes a measurable polyarticular inflammation, marked cartilage destruction in association with pannus formation and mild to moderate bone resorption and periosteal bone proliferation. In this model, collagen was administered to female Lewis strain of rats on Day 1 and 7 of study and dosed with compounds from Day 11 to Day 17. Test compounds were evaluated to assess the potential to inhibit the inflammation (including paw swelling), cartilage destruction and bone resorption in arthritic rats, using a model in which the treatment is administered after the disease has been established.

[3] = test system: IL-6 and IL-17 cytokines; experiment: In vivo efficacy in mouse endotoxemia model; settings: C57/Bl6 mice, oral 75 mg/kg, inhibition of IL-6 and IL-17 post 4 hour LPS challenge 0.5 mg/kg intraperitoneally
Description: Sub lethal doses of Endotoxin (E. Coli bacterial lipopolysaccharide) were administered to animals to produce a generalized inflammatory response which was monitored by increases in secreted cytokines. Compounds were administered to C57/Bl6 mice orally at 75 mg/kg dose to evaluate inhibition in IL-6 and IL-17 cytokines post 4 hour challenge with Lipopolysaccharide (LPS) at 0.5 mg/kg dose intraperitoneally.

[4] = test system: hApoA-1 mRNA; experiment: Up-regulation of hApoA-1 mRNA transcription in Huh7 cells; assay type: cell-based, human; set-up: key: Active: Compounds with an EC170 value less than 30 μM are deemed to be active.; Not Active: Compounds with an EC170 value less than 30 μM are deemed to be active; settings: 48 hrs treatment, ApoA-I mRNA
Method in brief: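 Huh7 cells plated 24 h before compound, then treated 48 h; mRNA isolated from lysates and ApoA-I quantified by one-step real-time PCR. Fold induction derived from Ct values relative to the matching DMSO control; EC170 reported as activity measure.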

[5] = test system: Human AML MV-4-11 cells; experiment: Inhibition of cell proliferation in MV4-11 cells; assay type: cell-based; set-up: key: Active: Compounds with an IC50 value less than 30 μM are deemed to be active.; Not Active: Compounds with an IC50 value less than 30 μM are deemed to be active; settings: 72 hours
Method in brief: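 Exponentially growing MV-4-11 cells were treated immediately with two-fold compound dilutions from 30 µM to 0.2 µM in triplicate for 72 h at 37 °C. Viability was read by MTS (CellTiter Aqueous One) absorbance at 490 nm after 3-4 h; % proliferation vs DMSO gave IC50.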

COc1cc(OC)c2c(=O)[nH]c(-c3cccc(N4CCN(C(C)C)CC4)n3)nc2c1 [Example 17, 2-(6-(4-Isopropylpiperazin-1-yl)pyridin-2-yl)-5,7-dimethoxyquinazolin-4(3H)-one Hydrochloride]
Active: FRET activity (IC50 < 30 μM) [1] | In vivo activity [2] | In vivo activity [3] | ApoA-1 activity (EC170 < 30 μM) [4] | cell proliferation activity (IC50 < 30 μM) [5]
